Results from patent US20130303378A1, “Biocide Compositions Comprising Esters Of Ethoxylated Alcohols” (priority 2010, published 2013).

Experiments:
[1] = system: barley powdery mildew (Blumeria graminis f. sp. hordei); assay: Curative greenhouse trial with Opus SC125 plus adjuvant against barley powdery mildew; format: in vivo, Blumeria graminis f. sp. hordei on barley; settings: Opus 10 g/ha, adjuvant 50 ml/ha, inoculation 2 days prior to application, assessment 14 DAT, mildew pustules per leaf
Description: Opus SC125, a commercial available pesticide sold by BASF, was tested to control barley powdery mildew (BPM) in a curative greenhouse trial, Azoxystrobin SC 250 in a protective trial. In each case, barley was cultivated in a substrate “Frustorder Erde” for three weeks. Each treatment was replicated 14 times. The adjuvant dose rate in each treatment was 50 ml/ha.
Inoculation of the leaves with powdery mildew (Blumeria graminis f. sp. hordei) was done 2 days prior to application to test Opus' curative action. From the stem, leaf segments were cut off with a length of 10 cm using the flag leaf (F) and 2nd leaf (F-1). Altogether, the leaves of each stem were placed on benzimidazol agar i.e. 0.5% Agar with 40 ppm benzimidazol. The concentration of Opus for the leaf application was 10 g/ha. Assessment 14 days after treatment (14 DAT) of the efficacy against powdery mildew was done by counting the mildew pustules per leaf on a length of 7 cm. The assessment of the infection rate was conducted by a trained biologist.

barley powdery mildew [2] = assay: Protective greenhouse trial with Amistar (Azoxystrobin SC 250) plus adjuvant against barley powdery mildew; format: in vivo, barley powdery mildew on barley; settings: azoxystrobin 5 g/ha, adjuvant 50 ml/ha, leaf segments cut 5 h after application, incubation 10 d after inoculation
Description: Opus SC125, a commercial available pesticide sold by BASF, was tested to control barley powdery mildew (BPM) in a curative greenhouse trial, Azoxystrobin SC 250 in a protective trial. In each case, barley was cultivated in a substrate “Frustorder Erde” for three weeks. Each treatment was replicated 14 times. The adjuvant dose rate in each treatment was 50 ml/ha. 5 h after application with the equivalent of 5 g/ha azoxystrobin, leaf segments were cut off at a length of 7 cm from the stem. The leaves of the F and F-1 leaf were placed on agar. After the inoculation, the incubation time was 10 d. The assessment of the infection rate was conducted by a trained biologist.

barley powdery mildew [3] = assay: Performance in both trials together (curative Opus and protective Amistar); format: in vivo, barley powdery mildew on barley; settings: for adjuvancy effect considering the performance in both trials: assessment in words, Opus and Amistar trials; for Sum of infection rates: sum of OPUS and AMISTAR infection rates
Description: Opus SC125, a commercial available pesticide sold by BASF, was tested to control barley powdery mildew (BPM) in a curative greenhouse trial, Azoxystrobin SC 250 in a protective trial. In each case, barley was cultivated in a substrate “Frustorder Erde” for three weeks. Each treatment was replicated 14 times. The adjuvant dose rate in each treatment was 50 ml/ha. Inoculation of the leaves with powdery mildew (Blumeria graminis f. sp. hordei) was done 2 days prior to application to test Opus' curative action. From the stem, leaf segments were cut off with a length of 10 cm using the flag leaf (F) and 2nd leaf (F-1). Altogether, the leaves of each stem were placed on benzimidazol agar i.e. 0.5% Agar with 40 ppm benzimidazol. The concentration of Opus for the leaf application was 10 g/ha. […] The assessment of the infection rate was conducted by a trained biologist. 5 h after application with the equivalent of 5 g/ha azoxystrobin, leaf segments were cut off at a length of 7 cm from the stem. The leaves of the F and F-1 leaf were placed on agar. After the inoculation, the incubation time was 10 d. The assessment of the infection rate was conducted by a trained biologist.

| Substance | Infection rate of barley powdery mildew after treatment with fungicides, OPUS [1] | Infection rate of barley powdery mildew after treatment with fungicides, AMISTAR (barley powdery mildew [2]) | adjuvancy effect considering the performance in both trials (barley powdery mildew [3]) | Sum of infection rates (barley powdery mildew [3]) |
| --- | --- | --- | --- | --- |
| Isoamyl + 5EO oleate [Example C5] | 17% | 17% | does not give acceptable results | 34% |
| Isoamyl + 20EO laurate [Example 2] | 12% | 0% | – | 12% |
| C12/14 + 10EO-C8/10 Ester [Example C3] | 29% | 2% | – | 31% |
| C12/14 + 20EO-C8/10 Ester [Example C4] | 15% | 18% | – | 33% |
| Decyl + 20EO-C8/10 Ester [Example 5] | 11% | 12% | – | 23% |
| Isoamyl + 10EO laurate [Example 3] | 4% | 14% | – | 18% |
| C12/14 + 5EO-C8/10 Ester [Example C2] | 24% | 3% | – | 27% |
| Isodecyl + 6EO-C8/10 Ester [Example C1] | 21% | 5% | – | 26% |
| Decyl + 10EO-C8/10 Ester [Example 4] | 22% | 0% | – | 22% |
| Isoamyl + 20EO oleate [Example 1] | 7% | 0% | best adjuvancy effect | 7% |
